Reference: US8889370B2, “Method of determining inhibitors of coagulation” (Siemens Healthcare Diagnostics Products GmbH, priority 2010, dated 2014)

Legend:
F Xa [1] = biological target: T1, F Xa (Homo sapiens, UniProt P00742); experiment: LOCI chemiluminescence competition assay for F Xa inhibitors in standard human plasma, ligand B-r-G-R-H; format: binding; set-up: 10 μl of a reagent containing human F Xa (approx. 1000 IU/l); settings: standard human plasma with increasing inhibitor concentrations, anti-F Xa antibody-coated Chemibeads, FIG. 9
Protocol: The signal-producing system used was the LOCI system according to example 4.
The Chemibeads used herein were additionally coated with a commercially available polyclonal antibody to F Xa. For this, the antibody was linked covalently to the latex particles in a coupling ratio of 10 mg of antibody to […] of particles. The Sensibeads used herein were additionally coated with streptavidin.
The ligand used was the biotinylated peptide aldehyde biotinyl-Ttds-D-Arg-Gly-Arg-H (B-r-G-R—H).
In the absence of an F Xa inhibitor, the ligand binds, via its biotin residue, to the streptavidin-coated Sensibeads and, via its peptide moiety, to the F Xa which itself binds to the antibody-coated Chemibeads, and a chemiluminescence signal is generated (see also FIG. 1).
10 μl of a reagent containing human F Xa (approx. 1000 IU/l) and fibrin polymerization inhibitor peptide glycine-proline-arginine-proline (10 mg/ml) were admixed with 2 μl of sample, 20 μl of Chemibeads (400 μg/ml) and 10 μl of the ligand (6 μM) and incubated for 5 minutes. After addition of 60 μl of Sensibeads (200 μg/ml) and incubation for 10 minutes, the mix was filled with water to 260 μl and the chemiluminescence signal was measured. As FIG. 9 indicates, the chemiluminescence signal is reduced as a function of the type and concentration of the direct F Xa and thrombin inhibitors metered in.

F Xa [2] = biological target: T1, F Xa; settings: Prasa et al. 1997; Perzborn 2009; read-out: binding constant for F Xa; cited from earlier work
thrombin = thrombin (Homo sapiens, UniProt P00734); set-up: binding constant for thrombin: unit not given here; settings: cited from earlier work

Compound | chemiluminescence signal (F Xa [1]) | Ki (F Xa [2]) | binding constant for thrombin (thrombin; Prasa et al. 1997) | binding to thrombin, times more weakly than to F Xa (thrombin; Perzborn 2009)
CC1CNc2c(cccc2S(=O)(=O)N[C@@H](CCCNC(=N)N)C(=O)N2CC[C@@H](C)C[C@@H]2C(=O)O)C1 (stereo partly drawn) [argatroban] | not reduced | 210 µM | – | –
hirudin | not reduced | – | 2.7×10^−14 | –
O=C(NC[C@H]1CN(c2ccc(N3CCOCC3=O)cc2)C(=O)O1)c1ccc(Cl)s1 [rivaroxaban] | inversely proportional | – | – | up to 10 000 times
